Measurements published in patent US20220313652A1, “USE OF COMPOUND OR PHARMACEUTICALLY ACCEPTABLE SALT, DIMER OR TRIMER THEREOF IN MANUFACTURE OF MEDICAMENT FOR TREATING CANCER” (priority 2020, published 2022).
“Also recorded” adds a separate entry of the source. Like-named read-outs stand apart in the source and are kept apart here. Values belong to the molecule of their own block, whether it stands above or below them.

Assays:
[1] = tested on: lung cancer cell line A549; test: MTT growth inhibition / IC50 on lung cancer cell line A549; type: cell-based
Excerpt: According to the tissue distribution characteristics of EGFR and SGLT1/2, the targets of Gefitinib and Sotagliflozin, the followings cells were selected for experimental verification: lung cancer cell line A549; colorectal cancer cell line LoVo, HT29, SW620, HCT116; cervical cancer HeLa; ovarian cancer SKOV3; gastric cancer HGC27; cholangiocarcinoma RBE; esophageal cancer KYSE30, and the like. After growing to 80% density, the cells were trypsinized, passaged and plated in a 96-well plate with 5000 cells per well. After 24 hours, the medium was replaced with a medium containing the corresponding concentration of drug. After 48 hours, the absorbance at each concentration was detected by the MTT method.
(§1) The experiment included the following groups:
Sotagliflozin test group (FIG. 2-a-2): cells were treated by adding Sotagliflozin alone at 6 different concentrations, 0 μM, 10 μM, 30 μM, 40 μM, […] respectively, to the culture medium, and cell survival rate was measured after […] of incubation.

[2] = tested on: liver cancer cell line HepG2; test: MTT growth inhibition / IC50 on liver cancer cell line HepG2; type: cell-based
Protocol: After growing to 80% density, the cells were trypsinized, passaged and plated in a 96-well plate with 5000 cells per well. […] After 48 hours, the absorbance at each concentration was detected by the MTT method.

[3] = tested on: prostate cancer DU145 cells; test: MTT inhibitory effect of Sotagliflozin on DU145 cells; type: cell-based; settings: 48 hours
Protocol: (§2) Prostate cancer DU145 cells, breast cancer MCF-7 cells, esophageal cancer KYSE30 cells, gastric cancer HGC-27 cells, cholangiocarcinoma RBE cells, ovarian cancer SKOV3 cells, and cervical cancer Hela cells were used to verify the inhibitory effect of Sotagliflozin on tumor cells. After growing to 80% density, the cells were trypsinized, passaged and plated in a 96-well plate with 5000 cells per well. After 24 hours, the medium was replaced with a medium containing the corresponding concentration of drug. After 48 hours, the absorbance at each concentration was detected by the MTT method.
as §1
(§3) Control group: cells were cultured in normal culture medium without drug added.
(§4) Sotagliflozin test group: cells were treated by adding Sotagliflozin at different concentration to each culture medium.
(§5) After incubation, the cell growth inhibition rate was calculated by dividing the absorbance value at each concentration by the absorbance value of the control group. In the figures, the concentration of Sotagliflozin is taken as the abscissa and the cell growth inhibition rate is taken as the ordinate.

[4] = tested on: breast cancer MCF-7 cells; test: MTT inhibitory effect of Sotagliflozin on MCF-7 cells; type: cell-based; settings: 48 hours
Protocol: as §2, §1, §3, §4, §5

[5] = tested on: esophageal cancer KYSE30 cells; test: MTT inhibitory effect of Sotagliflozin on KYSE30 cells; type: cell-based; settings: 48 hours
Protocol: as §2, §1, §3, §4, §5

[6] = tested on: gastric cancer HGC-27 cells; test: MTT inhibitory effect of Sotagliflozin on HGC-27 cells; type: cell-based; settings: 48 hours
Protocol: as §2, §1, §3, §4, §5

[7] = tested on: cholangiocarcinoma RBE cells; test: MTT inhibitory effect of Sotagliflozin on RBE cells; type: cell-based; settings: 48 hours
Protocol: as §2, §1, §3, §4, §5

[8] = tested on: ovarian cancer SKOV3 cells; test: MTT inhibitory effect of Sotagliflozin on SKOV3 cells; type: cell-based; settings: 48 hours
Protocol: as §2, §1, §3, §4, §5

[9] = tested on: cervical cancer HeLa cells; test: MTT inhibitory effect of Sotagliflozin on HeLa cells; type: cell-based; settings: 48 hours
Protocol: as §2, §1, §3, §4, §5

[10] = tested on: normal human umbilical cord epithelial cells
[11] = tested on: lung cancer A549 cells; test: Tumor treatment experiment in A549 tumor cell-bearing nude mice
Protocol: After growing to the logarithmic phase, A549 cells were collected and resuspended in serum-free DMEM medium to 5×10^7 cells per ml. Each mouse was inoculated with 100 μl of 5×10^6 cells, and the tumor size was measured 19 days later. Mice were grouped according to the tumor size, and the average tumor size in each group was the same. Mice were administered after grouping.
The dose of Gefitinib was 100 mg per kilogram according to the reported dose for the treatment of A549 xenograft tumor in previous studies. The two drugs were administered by gavage, consistent with the current oral mode in clinical use. The dosing cycle was once every two days. The tumor size was measured every two days. After 40 days of administration, the test was ended, and the tumor was removed and weighed.

[12] = tested on: liver cancer HepG2 cells, colorectal cancer LoVo, HT29, DLD1, SW480, and HCT116 cells; test: Growth inhibition, Lenvatinib alone vs Sotagliflozin combined with Lenvatinib; type: cell-based; settings: Sotagliflozin at a safe dose; variety of cell lines
Excerpt: Therefore, the effect of the combination in the safe concentration range of Sotagliflozin is better than the effect of each single agent. It is worth mentioning that the ability of Sotagliflozin in the combination to enhance the efficacy of VEGFR-targeting TKI drugs is not limited to a single drug of Apatinib.

[13] = tested on: liver cancer cell line HepG2; colorectal cancer cell line LoVo, HT29, SW620, SW480; test: MTT growth inhibition, Apatinib alone vs Apatinib+Sotagliflozin on tumor cell lines; type: cell-based; settings: Apatinib 5-30 μM alone or with Sotagliflozin 20 μM, 48 hours
Excerpt: After obtaining the effectiveness of Gefitinib in Example 1, the present disclosure further validated another VEGFR-targeting TKI drug, Apatinib. According to the tissue distribution characteristics of VEGFR and SGLT1/2, the targets of Apatinib and Sotagliflozin, the followings cells were selected for experimental verification: liver cancer cell line HepG2; colorectal cancer cell line LoVo, HT29, SW620, SW480; cervical cancer HeLa; ovarian cancer SKOV3; gastric cancer HGC27; cholangiocarcinoma RBE; esophageal cancer KYSE3, and the like. After growing to 80% density, the cells were trypsinized, passaged and plated in a 96-well plate with 5000 cells per well. After 24 hours, the medium was replaced with a medium containing the corresponding concentration of Apatinib, Sotagliflozin, or the combination of Apatinib and Sotagliflozin. After 48 hours, the absorbance at each concentration was detected by the MTT method. The experiment included the following groups: Control group: cells were cultured in normal culture medium without drug added. […] The cell growth inhibition rate was calculated by dividing the absorbance value at each concentration by the absorbance value of the control group. […] In the figures, the concentration of Apatinib is taken as the abscissa and the cell growth inhibition rate is taken as the ordinate.

[14] = A549 tumor-bearing nude mice, gavage once every two days, 40 days

- IC50 ([1]; Sotagliflozin alone, lung cancer A549 cells, summary value, read-out: IC50): 71.6 µM
- IC50 ([2]; Sotagliflozin alone, liver cancer HepG2 cells, summary value, read-out: IC50): 116 µM
- IC50 [3]: 40.8 µM
- IC50 [4]: 64.8 µM
- IC50 [5]: 82.3 µM
- IC50 [6]: 48.5 µM
- IC50 [8]: 84.5 µM
- IC50 [9]: 82.1 µM
Molecule: Sotagliflozin
- IC50 ([1]; single agent alone, cell survival rate after 1 h of incubation, read-out: IC50 value on A549 cells): 73 µM
- IC50 ([2]; Sotagliflozin alone, cell survival rate after 2 h of incubation, read-out: IC50 value on HepG2 cells): 116 µM
- IC50 [7]: 182 µM
- concentration at which mainly cell growth inhibition effect is exhibited [10]: lower than 8 μM
- concentration producing great cytotoxicity [10]: higher than 80 μM
- Tumor growth inhibition rate [11, 14]: 58.4
- Tumor volume ratio of each group to the control group [11, 14]: 0.416
- Average tumor volume ([11]; A549 tumor-bearing nude mice, gavage once every two days, 40 days, Sotagliflozin 30 mg/kg, Gefitinib 100 mg per kilogram): 430.3
- inhibitory effect on tumor volume / tumor growth ([11]; tumor-bearing mice): can inhibit tumor growth; also recorded: good inhibitory effect on tumor volume

Molecule: COc1cc2ncnc(Nc3ccc(F)c(Cl)c3)c2cc1OCCCN1CCOCC1 [Gefitinib]
- Average tumor volume ([11]; mouse, in vivo): 504.8
- Tumor volume ratio of each group to the control group ([11]; mouse, in vivo): 0.4881

Molecule: COc1cc2nccc(Oc3ccc(NC(=O)NC4CC4)c(Cl)c3)c2cc1C(N)=O [Lenvatinib]
- effect of addition of Sotagliflozin on inhibitory effect of Lenvatinib [12]: enhanced the inhibitory effect

Molecule: N#CC1(c2ccc(NC(=O)c3cccnc3NCc3ccncc3)cc2)CCCC1 [Apatinib]
- IC50 ([2]; Homo sapiens, HepG2, Apatinib alone, cell survival rate after 2 h of incubation, read-out: IC50 value on HepG2 cells): 46 µM
- inhibitory effect on tumor cells (cell growth inhibition rate) [13]: limited
